Data from patent US20250197406A1, “INDAZOLES AS HEMATOPOIETIC PROGENITOR KINASE 1 (HPK1) INHIBITORS AND METHODS FOR USING SAME” (1ST Biotherapeutics, Inc., priority 2022, published 2025).

Target: recombinant human HPK1 (Homo sapiens (Human), UniProt Q92918)
Test: HPK1 kinase assay (Promega ADP-Glo kinase assay)
Assay type: biochemical
Details: In vitro activity against HPK1, 5 ng HPK1, MBP substrate, ATP 25 μM, 30° C. 40 minutes
Protocol: HPK1 kinase activity was measured by Promega's ADP-Glo™ kinase assay. In this assay, 5 ng of recombinant human HPK1 (signalchem) is incubated with 5 μL of compounds (0.5% DMSO), 5 μL of MBP (0.5 μg/μl) and 5 μL of ATP (25 μM) in buffer (40 mM Tris, 7.5; 20 mM MgCl2; 0.1 mg/ml BSA; 50 μM DTT.). The assay was started by incubating the reaction mixture in a 96-well plate at 30° C. for 40 minutes. After the incubation, 25 μL ADP-Glo reagent was added and the reaction was incubated at room temperature for 40-min to stop the reaction and degrade residual ATP. The ADP product was then converted to ATP by adding 50 μL per well of detection reagent. Luminescence was detected after 30-min room temperature incubation with the Molecular device I3X plate reader. The IC50 values were calculated from a series of percent inhibition values determined at a range of inhibitor concentration using software routines as implemented in the GraphPad Prism 7 software and SigmaPlot13.0.

Sequence of recombinant human HPK1 (Q92918 whole entry): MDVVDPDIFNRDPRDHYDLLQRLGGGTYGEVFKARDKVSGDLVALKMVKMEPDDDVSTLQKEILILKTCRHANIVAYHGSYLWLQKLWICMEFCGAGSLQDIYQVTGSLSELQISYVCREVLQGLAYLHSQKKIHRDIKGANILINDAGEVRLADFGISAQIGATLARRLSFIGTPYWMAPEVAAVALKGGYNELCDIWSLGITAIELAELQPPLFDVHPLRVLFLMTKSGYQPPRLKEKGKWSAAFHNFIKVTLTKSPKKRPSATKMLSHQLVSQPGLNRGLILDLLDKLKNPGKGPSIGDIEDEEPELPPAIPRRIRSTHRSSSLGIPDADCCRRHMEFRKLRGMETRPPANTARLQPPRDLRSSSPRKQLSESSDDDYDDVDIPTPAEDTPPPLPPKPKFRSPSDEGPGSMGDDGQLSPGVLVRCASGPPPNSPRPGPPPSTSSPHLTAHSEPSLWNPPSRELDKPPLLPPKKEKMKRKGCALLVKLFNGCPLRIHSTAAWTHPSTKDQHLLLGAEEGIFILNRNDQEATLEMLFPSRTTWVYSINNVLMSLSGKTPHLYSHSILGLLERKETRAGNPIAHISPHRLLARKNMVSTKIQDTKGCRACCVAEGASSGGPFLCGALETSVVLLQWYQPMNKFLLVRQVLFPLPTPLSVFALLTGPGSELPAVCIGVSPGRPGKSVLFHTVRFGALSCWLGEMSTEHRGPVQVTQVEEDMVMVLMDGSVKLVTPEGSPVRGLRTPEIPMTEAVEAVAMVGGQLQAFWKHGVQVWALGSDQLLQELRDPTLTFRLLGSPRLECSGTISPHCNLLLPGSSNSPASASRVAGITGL

CCNC(=O)[C@H]1C[C@H]1C(=O)Nc1cn2cc(-c3c(Cl)c(F)c(NC(C)C)c4[nH]ncc34)ncc2n1 [Example 29, (1R,2S)-N1-(6-(5-chloro-6-fluoro-7-(isopropylamino)-1H-indazol-4-yl)imidazo[1,2-a]pyrazin-2-yl)-N2-ethylcyclopropane-1,2-dicarboxamide]
IC50: < 100 nM

COc1c(F)c(NC(C)C)c2[nH]ncc2c1-c1cn2cc(NC(=O)C3CC3)nc2cn1 [Example 160, N-(6-(6-fluoro-7-(isopropylamino)-5-methoxy-1H-indazol-4-yl)imidazo[1,2-a]pyrazin-2-yl)cyclopropanecarboxamide]
IC50: < 100 nM

CC(C)Nc1c(F)c(C(=O)O)c(-c2cn3cc(NC(=O)[C@@H]4C[C@@H]4F)nc3cn2)c2cn[nH]c12 [Example 73, 6-fluoro-4-(2-((1S,2S)-2-fluorocyclopropane-1-carboxamido)imidazo[1,2-a]pyrazin-6-yl)-7-(isopropylamino)-1H-indazole-5-carboxylic acid]
IC50: 501 to 1000 nM

COc1c(F)c(NC(C)C)c2[nH]ncc2c1-c1cn2cc(NC(=O)[C@@H]3C[C@@H]3F)nc2cn1 [Example 141, (1S,2S)-2-fluoro-N-(6-(6-fluoro-7-(isopropylamino)-5-methoxy-1H-indazol-4-yl)imidazo[1,2-a]pyrazin-2-yl)cyclopropane-1-carboxamide]
IC50: < 100 nM

CC(O)c1c(F)c(C(F)F)c(-c2cn3cc(NC(=O)[C@@H]4C[C@@H]4F)nc3cn2)c2cn[nH]c12 (stereo partly drawn) [Example 49, (1S,2S)-N-(6-(5-(difluoromethyl)-6-fluoro-7-(1-hydroxyethyl)-1H-indazol-4-yl)imidazo[1,2-a]pyrazin-2-yl)-2-fluorocyclopropane-1-carboxamide]
IC50: < 100 nM

Cc1c(F)c(C(C)NC(=O)C2CC2)c2[nH]ncc2c1-c1cn2cc(NC(=O)[C@@H]3C[C@@H]3F)nc2cn1 (stereo partly drawn) [Example 69, (1S,2S)-N-(6-(7-(1-(cyclopropanecarboxamido)ethyl)-6-fluoro-5-methyl-1H-indazol-4-yl)imidazo[1,2-a]pyrazin-2-yl)-2-fluorocyclopropane-1-carboxamide]
IC50: < 100 nM

O=C(Nc1cn2cc(-c3c(C(F)(F)F)c(F)c(C(O)C4CC4)c4[nH]ncc34)ncc2n1)[C@@H]1C[C@@H]1F (stereo partly drawn) [Example 36, (1S,2S)-N-(6-(7-(cyclopropyl(hydroxy)methyl)-6-fluoro-5-(trifluoromethyl)-1H-indazol-4-yl)imidazo[1,2-a]pyrazin-2-yl)-2-fluorocyclopropane-1-carboxamide]
IC50: < 100 nM

CC(C)Nc1c(F)c(Cl)c(-c2cn3cc(NC(=O)[C@@H]4C[C@@H]4CO)nc3cn2)c2cn[nH]c12 [Example 38, (IR,2S)-N-(6-(5-chloro-6-fluoro-7-(isopropylamino)-1H-indazol-4-yl)imidazo[1,2-a]pyrazin-2-yl)-2-(hydroxymethyl)cyclopropane-1-carboxamide]
IC50: < 100 nM

CC(=O)Nc1cn2cc(-c3c(Cl)c(F)c(CN4CC(C)(O)C4)c4[nH]ncc34)ncc2n1 [Example 157, N-(6-(5-chloro-6-fluoro-7-((3-hydroxy-3-methylazetidin-1-yl)methyl)-1H-indazol-4-yl)imidazo[1,2-a]pyrazin-2-yl)acetamide]
IC50: 501 to 1000 nM

CCOC(=O)Nc1cn2cc(-c3c(Cl)c(F)c(NC(C)C)c4[nH]ncc34)ncc2n1 [Example 114, ethyl (6-(5-chloro-6-fluoro-7-(isopropylamino)-1H-indazol-4-yl)imidazo[1,2-a]pyrazin-2-yl)carbamate]
IC50: < 100 nM

CNC(=O)Nc1cn2cc(-c3c(Cl)c(F)c(NC(C)C)c4[nH]ncc34)ncc2n1 [Example 121, 1-(6-(5-chloro-6-fluoro-7-(isopropylamino)-1H-indazol-4-yl)imidazo[1,2-a]pyrazin-2-yl)-3-methylurea]
IC50: 501 to 1000 nM

Cc1c(F)c(C(N)C2CC2)c2[nH]ncc2c1-c1cn2cc(NC(=O)[C@@H]3C[C@@H]3F)nc2cn1 (stereo partly drawn) [Example 23, (1S,2S)-N-(6-(7-(amino(cyclopropyl)methyl)-6-fluoro-5-methyl-1H-indazol-4-yl)imidazo[1,2-a]pyrazin-2-yl)-2-fluorocyclopropane-1-carboxamide]
IC50: < 100 nM

CC(C)Nc1c(F)c(Cl)c(-c2cn3cc(NC(=O)C4(N)CC4)nc3cn2)c2cn[nH]c12 [Example 78, 1-amino-N-(6-(5-chloro-6-fluoro-7-(isopropylamino)-1H-indazol-4-yl)imidazo[1,2-a]pyrazin-2-yl)cyclopropane-1-carboxamide]
IC50: < 100 nM

Cc1c(F)c(C(C)CN)c2[nH]ncc2c1-c1cn2cc(NC(=O)[C@@H]3C[C@@H]3F)nc2cn1 (stereo partly drawn) [Example 24, (1S,2S)-N-(6-(7-(1-aminopropan-2-yl)-6-fluoro-5-methyl-1H-indazol-4-yl)imidazo[1,2-a]pyrazin-2-yl)-2-fluorocyclopropane-1-carboxamide]
IC50: < 100 nM

COCC(C)c1c(F)c(C)c(-c2cn3cc(NC(=O)[C@@H]4C[C@@H]4F)nc3cn2)c2cn[nH]c12 (stereo partly drawn) [Example 4, (1S,2S)-2-fluoro-N-(6-(6-fluoro-7-(1-methoxypropan-2-yl)-5-methyl-1H-indazol-4-yl)imidazo[1,2-a]pyrazin-2-yl)cyclopropane-1-carboxamide]
IC50: < 100 nM

C[C@H](N[S@@+]([O-])C(C)(C)C)c1c(F)c(Cl)c(-c2cn3cc(NC(=O)[C@@H]4C[C@@H]4F)nc3cn2)c2cn[nH]c12 [Example 132, (1S,2S)-N-(6-(7-((S)-1-(((S)-tert-butylsulfinyl)amino)ethyl)-5-chloro-6-fluoro-1H-indazol-4-yl)imidazo[1,2-a]pyrazin-2-yl)-2-fluorocyclopropane-1-carboxamide]
IC50: < 100 nM

COc1c(F)c(NC(C)C)c2[nH]ncc2c1-c1cn2cc(NC(C)=O)nc2cn1 [Example 158, N-(6-(6-fluoro-7-(isopropylamino)-5-methoxy-1H-indazol-4-yl)imidazo[1,2-a]pyrazin-2-yl)acetamide]
IC50: < 100 nM

CC(C)Nc1c(F)c(Cl)c(-c2cn3cc(NC4CCOC4)nc3cn2)c2cn[nH]c12 (stereo not shown) [Example 101, 6-(5-chloro-6-fluoro-7-(isopropylamino)-1H-indazol-4-yl)-N-(tetrahydrofuran-3-yl)imidazo[1,2-a]pyrazin-2-amine]
IC50: 101 to 500 nM

CC(C)Nc1c(F)c(Cl)c(-c2cn3cc(NC(=O)CN)nc3cn2)c2cn[nH]c12 [Example 80, 2-amino-N-(6-(5-chloro-6-fluoro-7-(isopropylamino)-1H-indazol-4-yl)imidazo[1,2-a]pyrazin-2-yl)acetamide]
IC50: < 100 nM

CC(C)Nc1c(F)c(Cl)c(-c2cn3cc(NC(=O)C4CCOC4)nc3cn2)c2cn[nH]c12 (stereo not shown) [Example 125, N-(6-(5-chloro-6-fluoro-7-(isopropylamino)-1H-indazol-4-yl)imidazo[1,2-a]pyrazin-2-yl)tetrahydrofuran-3-carboxamide]
IC50: < 100 nM

CN(C)c1c(F)c(C(F)F)c(-c2cn3cc(NC(=O)[C@@H]4C[C@@H]4F)nc3cn2)c2cn[nH]c12 [Example 17, (1S,2S)-N-(6-(5-(difluoromethyl)-7-(dimethylamino)-6-fluoro-1H-indazol-4-yl)imidazo[1,2-a]pyrazin-2-yl)-2-fluorocyclopropane-1-carboxamide]
IC50: < 100 nM

COC(=O)Nc1cn2cc(-c3c(Cl)c(F)c(NC(C)C)c4[nH]ncc34)ncc2n1 [Example 113, methyl (6-(5-chloro-6-fluoro-7-(isopropylamino)-1H-indazol-4-yl)imidazo[1,2-a]pyrazin-2-yl)carbamate]
IC50: < 100 nM

NC(c1c(F)c(C(F)(F)F)c(-c2cn3cc(NC(=O)[C@@H]4C[C@@H]4F)nc3cn2)c2cn[nH]c12)C1CC1 (stereo partly drawn) [Example 44, (1S,2S)-N-(6-(7-(amino(cyclopropyl)methyl)-6-fluoro-5-(trifluoromethyl)-1H-indazol-4-yl)imidazo[1,2-a]pyrazin-2-yl)-2-fluorocyclopropane-1-carboxamide]
IC50: < 100 nM

CC(C)Nc1c(F)c(Cl)c(-c2cn3cc(NC(=O)CC4COC4)nc3cn2)c2cn[nH]c12 [Example 116, N-(6-(5-chloro-6-fluoro-7-(isopropylamino)-1H-indazol-4-yl)imidazo[1,2-a]pyrazin-2-yl)-2-(oxetan-3-yl)acetamide]
IC50: < 100 nM

CC(C)Nc1c(F)c(Cl)c(-c2cn3cc(NC(=O)N4CCNCC4)nc3cn2)c2cn[nH]c12 [Example 120, N-(6-(5-chloro-6-fluoro-7-(isopropylamino)-1H-indazol-4-yl)imidazo[1,2-a]pyrazin-2-yl)piperazine-1-carboxamide]
IC50: < 100 nM

CN(C)c1c(F)c(C(F)(F)F)c(-c2cn3cc(NC(=O)[C@H]4C[C@H]4F)nc3cn2)c2cn[nH]c12 [Example 27, (1R,2R)-N-(6-(7-(dimethylamino)-6-fluoro-5-(trifluoromethyl)-1H-indazol-4-yl)imidazo[1,2-a]pyrazin-2-yl)-2-fluorocyclopropane-1-carboxamide]
IC50: < 100 nM

CC(c1c(F)c(C(F)F)c(-c2cn3cc(NC(=O)[C@@H]4C[C@@H]4F)nc3cn2)c2cn[nH]c12)N1C(=O)c2ccccc2C1=O (stereo partly drawn) [Example 50, (1S,2S)-N-(6-(5-(difluoromethyl)-7-(1-(1,3-dioxoisoindolin-2-yl)ethyl)-6-fluoro-1H-indazol-4-yl)imidazo[1,2-a]pyrazin-2-yl)-2-fluorocyclopropane-1-carboxamide]
IC50: < 100 nM

Cc1c(F)c(C(C)CO)c2[nH]ncc2c1-c1cn2cc(NC(=O)[C@@H]3C[C@@H]3F)nc2cn1 (stereo partly drawn) [Example 8, (1S,2S)-2-fluoro-N-(6-(6-fluoro-7-(1-hydroxypropan-2-yl)-5-methyl-1H-indazol-4-yl)imidazo[1,2-a]pyrazin-2-yl)cyclopropane-1-carboxamide]
IC50: < 100 nM
